Source: patent US10183037B2, “Nucleoside phosphoramidate prodrugs” (Gilead Pharmasset LLC, priority 2007, dated 2019)

Test system: HCV replicon RNA-containing Huh7 cells (clone A cells)
Experiment: HCV replicon assay (replicon RNA by RT-PCR, ΔCt HCV, EC90)
Type: cell-based
Conditions: Hepatitis C virus, Huh-7, 96 h; for log reduction at 50 µM: read-out: Log10 Reduction at 50 μM
Procedure: HCV replicon assay. HCV replicon RNA-containing Huh7 cells (clone A cells; Apath, LLC, St. Louis, Mo.) were kept at exponential growth in Dulbecco's modified Eagle's medium (high glucose) containing 10% fetal bovine serum, 4 mM L-glutamine and 1 mM sodium pyruvate, 1×nonessential amino acids, and G418 (1,000 μg/ml). Antiviral assays were performed in the same medium without G418. Cells were seeded in a 96-well plate at 1,500 cells per well, and test compounds were added immediately after seeding. Incubation time 4 days. At the end of the incubation step, total cellular RNA was isolated (RNeasy 96 kit; Qiagen). Replicon RNA and an internal control (TaqMan rRNA control reagents; Applied Biosystems) were amplified in a single-step multiplex RT-PCR protocol as recommended by the manufacturer. The HCV primers and probe were designed with Primer Express software (Applied Biosystems) and covered highly conserved 5′-untranslated region (UTR) sequences (sense, 5′-AGCCATGGCGTTAGTA(T)GAGTGT-3′ (SEQ ID NO: 1), and antisense, 5′-TTCCGCAGACCACTATGG-3′ (SEQ ID NO: 2); probe, 5′-FAM-[…]-TAMRA-3′ (SEQ ID NO: 3)).
To express the antiviral effectiveness of a compound, the threshold RT-PCR cycle of the test compound was subtracted from the average threshold RT-PCR cycle of the no-drug control (ΔCtHCV). A ΔCt of 3.3 equals a 1-log 10 reduction (equal to the 90% effective concentration [EC90]) in replicon RNA levels. The cytotoxicity of the test compound could also be expressed by calculating the ΔCtrRNA values. The ΔΔCt specificity parameter could then be introduced (ΔCtHCV−ΔCtrRNA), in which the levels of HCV RNA are normalized for the rRNA levels and calibrated against the no-drug control.

Structure (SMILES)	EC90 [nM]	log reduction at 50 µM
COC(=O)[C@H](C)NP(=O)(OC[C@H]1O[C@@H](n2ccc(=O)[nH]c2=O)[C@](C)(F)[C@@H]1O)Oc1ccccc1 (stereo partly drawn) [Example 5, 2′-Deoxy-2′-fluoro-2′-C-methyluridine 5′-(phenylmethoxy-alanyl phosphate)]	3000	1.21
COC(=O)[C@@H](NP(=O)(OC[C@H]1O[C@@H](n2ccc(=O)[nH]c2=O)[C@](C)(F)[C@@H]1O)Oc1ccccc1)C(C)C (stereo partly drawn) [Example 6, 2′-Deoxy-2′-fluoro-2′-C-methyluridine 5′-(phenylmethoxy-valyl phosphate)]	–	0.45
COC(=O)[C@@H](NP(=O)(OC[C@H]1O[C@@H](n2ccc(=O)[nH]c2=O)[C@](C)(F)[C@@H]1O)Oc1ccc(Br)cc1)C(C)C (stereo partly drawn) [Example 7, 2′-Deoxy-2′-fluoro-2′-C-methyluridine 5′-(4-bromophenylmethoxy-valyl phosphate)]	–	-0.31
COC(=O)[C@H](C)NP(=O)(OC[C@H]1O[C@@H](n2ccc(=O)[nH]c2=O)[C@](C)(F)[C@@H]1O)Oc1ccc(Br)cc1 (stereo partly drawn) [Example 8, 2′-Deoxy-2′-fluoro-2′-C-methyluridine 5′-(4-bromophenylmethoxy-alanyl phosphate)]	2110	1.48
COC(=O)[C@H](C)NP(=O)(OC[C@H]1O[C@@H](n2ccc(N)nc2=O)[C@](C)(F)[C@@H]1O)Oc1ccccc1 (stereo partly drawn) [Example 10, 2′-Deoxy-2′-fluoro-2′-C-methylcytidine 5′-(phenylmethoxy-alanyl phosphate)]	19200	1.25
COC(=O)[C@@H](NP(=O)(OC[C@H]1O[C@@H](n2ccc(N)nc2=O)[C@](C)(F)[C@@H]1O)Oc1ccc(Br)cc1)C(C)C (stereo partly drawn) [Example 11, 2′-Deoxy-2′-fluoro-2′-C-methylcytidine 5′-(4-bromophenylmethoxy-valyl phosphate)]	–	0.55
COC(=O)[C@@H](NP(=O)(OC[C@H]1O[C@@H](n2ccc(N)nc2=O)[C@](C)(F)[C@@H]1O)Oc1ccccc1)C(C)C (stereo partly drawn) [Example 12, 2′-deoxy-2′-fluoro-2′-C-methylcytidine 5′-(phenylmethoxy-valyl phosphate)]	–	-0.31
COC(=O)CNP(=O)(OC[C@H]1O[C@@H](n2ccc(=O)[nH]c2=O)[C@](C)(F)[C@@H]1O)Oc1ccccc1 (stereo partly drawn) [compound 15]	860	–
CC(C)OC(=O)[C@H](C)NP(=O)(OC[C@H]1O[C@@H](n2ccc(=O)[nH]c2=O)[C@](C)(F)[C@@H]1O)Oc1ccccc1 (stereo partly drawn) [compound 25]	390	2.22
CCOC(=O)[C@H](C)NP(=O)(OC[C@H]1O[C@@H](n2ccc(=O)[nH]c2=O)[C@](C)(F)[C@@H]1O)Oc1ccc(F)cc1 (stereo partly drawn) [compound 27]	660	2.25
CC(C)OC(=O)[C@H](C)NP(=O)(OC[C@H]1O[C@@H](n2ccc(=O)[nH]c2=O)[C@](C)(F)[C@@H]1O)Oc1ccc(F)cc1 (stereo partly drawn) [compound 28]	750	2.16
CC(C)OC(=O)[C@H](C)NP(=O)(OC[C@H]1O[C@@H](n2ccc(=O)[nH]c2=O)[C@](C)(F)[C@@H]1O)Oc1ccccc1Cl (stereo partly drawn) [compound 36]	21900	1.64
CC(C)OC(=O)[C@H](C)NP(=O)(OC[C@H]1O[C@@H](n2ccc(=O)[nH]c2=O)[C@](C)(F)[C@@H]1O)Oc1ccc(Cl)cc1 (stereo partly drawn) [compound 39]	470	1.78
C[C@H](NP(=O)(OC[C@H]1O[C@@H](n2ccc(=O)[nH]c2=O)[C@](C)(F)[C@@H]1O)Oc1ccccc1)C(=O)OC1CCCCC1 (stereo partly drawn) [compound 49]	126	2.69
CCCCOC(=O)[C@H](C)NP(=O)(OC[C@H]1O[C@@H](n2ccc(=O)[nH]c2=O)[C@](C)(F)[C@@H]1O)Oc1ccccc1Cl (stereo partly drawn) [compound 53]	< 300	1.33
CC(C)OC(=O)[C@H](C)NP(=O)(OC[C@H]1O[C@@H](n2ccc(=O)[nH]c2=O)[C@](C)(F)[C@@H]1O)Oc1ccc(Br)cc1 (stereo partly drawn) [compound 54]	570	1.55
C[C@H](NP(=O)(OC[C@H]1O[C@@H](n2ccc(=O)[nH]c2=O)[C@](C)(F)[C@@H]1O)Oc1ccc(F)cc1)C(=O)OC1CCCCC1 (stereo partly drawn) [compound 55]	< 300	2.38
COC(=O)[C@H](C)NP(=O)(OC[C@H]1O[C@@H](N2C=NC3C(NC4CCCC4)=NC(N)=NC32)[C@](C)(F)[C@@H]1O)Oc1ccccc1 (stereo partly drawn) [compound 69]	< 300	2.25
COC(=O)[C@H](C)NP(=O)(OC[C@H]1O[C@@H](N2C=NC3C(N4CCC4)=NC(N)=NC32)[C@](C)(F)[C@@H]1O)Oc1ccccc1 (stereo partly drawn) [compound 70]	< 300	2.25
